biological target: T1, BRD4 proteins (Homo sapiens, UniProt O60885); assay: Degradation of BRD4 protein in MM.1S cell lines (Western blot densitometry); type: cell-based; settings: MM.1S cells, 10 μM, 24 hours
T1 construct: endogenous in cells; host or cells: MM.1S
Outline: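 MM.1S cells in RPMI-1640 with 10% FBS were treated with each degrader at 10 μM for 24 h. RIPA lysates were analysed by SDS-PAGE/Western blot with β-actin as reference, and BRD4 band densitometry was scored as reduction <40% (+), 40-<70% (++) or ≥70% (+++).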

| SMILES | BRD4 degrading capacity (%) |
| --- | --- |
| COC(=O)c1ccc(N2CCN(CC3CCN(C(=O)C[C@@H]4N=C(c5ccc(Cl)cc5)c5c(sc(C)c5C)-n5c(C)nnc54)CC3)CC2)cc1C#CCN.Cl [5-29′, methyl (S)-2-(3-aminoprop-1-yn-1-yl)-4-(4-((1-(2-(4-(4-chlorophenyl)-2,3,9-trimethyl-6H-thieno[3,2-f][1,2,4]triazolo[4,3-a][1,4]diazepin-6-yl)acetyl)piperidin-4-yl)methyl)piperazin-1-yl)benzoate hydrochloride] | +++ (the degrading capacity was reduced by 70% or more) |
| COC(=O)c1ccc(N2CCN(C(=O)CCNC(=O)C[C@@H]3N=C(c4ccc(Cl)cc4)c4c(sc(C)c4C)-n4c(C)nnc43)CC2)cc1C#CCN.Cl [5-32′, methyl (S)-2-(3-aminoprop-1-yn-1-yl)-4-(4-(3-(2-(4-(4-chlorophenyl)-2,3,9-trimethyl-6H-thieno[3,2-f][1,2,4]triazolo[4,3-a][1,4]diazepin-6-yl)acetamido)propanoyl)piperazin-1-yl)benzoate hydrochloride] | +++ (the degrading capacity was reduced by 70% or more) |
| COC(=O)c1cc(N2CCN(C(=O)CCNC(=O)C[C@@H]3N=C(c4ccc(Cl)cc4)c4c(sc(C)c4C)-n4c(C)nnc43)CC2)ccc1C#CCN.Cl [5-33′, methyl (S)-2-(3-aminoprop-1-yn-1-yl)-5-(4-(3-(2-(4-(4-chlorophenyl)-2,3,9-trimethyl-6H-thieno[3,2-f][1,2,4]triazolo[4,3-a][1,4]diazepin-6-yl)acetamido)propanoyl)piperazin-1-yl)benzoate hydrochloride] | ++ (the degrading capacity was reduced by 40% to 70% (exclusive of 70)) |
| COC(=O)c1ccc(NC2CCC(NC(=O)C[C@@H]3N=C(c4ccc(Cl)cc4)c4c(sc(C)c4C)-n4c(C)nnc43)CC2)cc1C#CCN (stereo partly drawn) [5-35′, methyl (S)-2-(3-aminoprop-1-yn-1-yl)-4-((4-(2-(4-(4-chlorophenyl)-2,3,9-trimethyl-6H-thieno[3,2-f][1,2,4]triazolo[4,3-a][1,4]diazepin-6-yl)acetamido)cyclohexyl)amino)benzoate trifluoroacetic acid] | +++ (the degrading capacity was reduced by 70% or more) |
| COC(=O)c1ccc(C(=O)N2CCC3(CC2)CN(C(=O)C[C@@H]2N=C(c4ccc(Cl)cc4)c4c(sc(C)c4C)-n4c(C)nnc42)C3)cc1C#CCN [5-39′, methyl (S)-2-(3-aminoprop-1-yn-1-yl)-4-(2-(2-(4-(4-chlorophenyl)-2,3,9-trimethyl-6H-thieno[3,2-f][1,2,4]triazolo[4,3-a][1,4]diazepin-6-yl)acetyl)-2,7-diazaspiro[3.5]nonane-7-carbonyl)benzoate trifluoroacetic acid] | ++ (the degrading capacity was reduced by 40% to 70% (exclusive of 70)) |
| COC(=O)c1ccc(N2CC3(CN(C(=O)C[C@@H]4N=C(c5ccc(Cl)cc5)c5c(sc(C)c5C)-n5c(C)nnc54)C3)C2)cc1C#CCN [5-40′, methyl (S)-2-(3-aminoprop-1-yn-1-yl)-4-(6-(2-(4-(4-chlorophenyl)-2,3,9-trimethyl-6H-thieno[3,2-f][1,2,4]triazolo[4,3-a][1,4]diazepin-6-yl)acetyl)-2,6-diazaspiro[3.3]heptan-2-yl)benzoate trifluoroacetic acid] | +++ (the degrading capacity was reduced by 70% or more) |
| COC(=O)c1ccc(C(=O)N2CC3(CN(C(=O)C[C@@H]4N=C(c5ccc(Cl)cc5)c5c(sc(C)c5C)-n5c(C)nnc54)C3)C2)cc1C#CCN [5-41′, methyl (S)-2-(3-aminoprop-1-yn-1-yl)-4-(6-(2-(4-(4-chlorophenyl)-2,3,9-trimethyl-6H-thieno[3,2-f][1,2,4]triazolo[4,3-a][1,4]diazepin-6-yl)acetyl)-2,6-diazaspiro[3.3]heptane-2-carbonyl)benzoate trifluoroacetic acid] | +++ (the degrading capacity was reduced by 70% or more) |
| COC(=O)c1ccc(N2CC3CN(C(=O)C[C@@H]4N=C(c5ccc(Cl)cc5)c5c(sc(C)c5C)-n5c(C)nnc54)CC3C2)cc1C#CCN (stereo partly drawn) [5-44′, methyl 2-(3-aminoprop-1-yn-1-yl)-4-(5-(2-((S)-4-(4-chlorophenyl)-2,3,9-trimethyl-6H-thieno[3,2-f][1,2,4]triazolo[4,3-a][1,4]diazepin-6-yl)acetyl)hexahydropyrrolo[3,4-c]pyrrol-2(1H)-yl)benzoate trifluoroacetic acid] | ++ (the degrading capacity was reduced by 40% to 70% (exclusive of 70)) |
| Cc1sc2c(c1C)C(c1ccc(Cl)cc1)=N[C@@H](CC(=O)NCCCC(=O)Nc1ccc(C(=O)O)c(C#CCN)c1)c1nnc(C)n1-2.Cl [5-53′, (S)-2-(3-aminoprop-1-yn-1-yl)-4-(4-(2-(4-(4-chlorophenyl)-2,3,9-trimethyl-6H-thieno[3,2-f][1,2,4]triazolo[4,3-a][1,4]diazepin-6-yl)acetamido)butanamido)benzoic acid hydrochloride] | ++ (the degrading capacity was reduced by 40% to 70% (exclusive of 70)) |
| Cc1sc2c(c1C)C(c1ccc(Cl)cc1)=N[C@@H](CC(=O)NCCCC(=O)Nc1ccc(C(N)=O)c(C#CCN)c1)c1nnc(C)n1-2.Cl [5-59′, (S)-2-(3-aminoprop-1-yn-1-yl)-4-(4-(2-(4-(4-chlorophenyl)-2,3,9-trimethyl-6H-thieno[3,2-f][1,2,4]triazolo[4,3-a][1,4]diazepin-6-yl)acetamido)butanamido)benzamide hydrochloride] | +++ (the degrading capacity was reduced by 70% or more) |
| Cc1sc2c(c1C)C(c1ccc(Cl)cc1)=N[C@@H](CC(=O)NCCCC(=O)Nc1ccc(C(=O)N(C)C)c(C#CCN)c1)c1nnc(C)n1-2.Cl [5-61′, (S)-2-(3-aminoprop-1-yn-1-yl)-4-(4-(2-(4-(4-chlorophenyl)-2,3,9-trimethyl-6H-thieno[3,2-f][1,2,4]triazolo[4,3-a][1,4]diazepin-6-yl)acetamido)butanamido)-N,N-dimethylbenzamide hydrochloride] | ++ (the degrading capacity was reduced by 40% to 70% (exclusive of 70)) |
| COc1ccc(NC(=O)CCCNC(=O)C[C@@H]2N=C(c3ccc(Cl)cc3)c3c(sc(C)c3C)-n3c(C)nnc32)cc1C#CCN [5-63′, (S)—N-(3-(3-aminoprop-1-yn-1-yl)-4-methoxyphenyl)-4-(2-(4-(4-chlorophenyl)-2,3,9-trimethyl-6H-thieno[3,2-f][1,2,4]triazolo[4,3-a][1,4]diazepin-6-yl)acetamido)butanamide trifluoroacetic acid] | ++ (the degrading capacity was reduced by 40% to 70% (exclusive of 70)) |
| Cc1ccc(NC(=O)CCCNC(=O)C[C@@H]2N=C(c3ccc(Cl)cc3)c3c(sc(C)c3C)-n3c(C)nnc32)cc1C#CCN.Cl [5-65′, (S)—N-(3-(3-aminoprop-1-yn-1-yl)-4-methylphenyl)-4-(2-(4-(4-chlorophenyl)-2,3,9-trimethyl-6H-thieno[3,2-f][1,2,4]triazolo[4,3-a][1,4]diazepin-6-yl)acetamido)butanamide hydrochloride] | + (the degrading capacity of each BRD4 degrader was reduced by less than 40%) |
| Cc1sc2c(c1C)C(c1ccc(Cl)cc1)=N[C@@H](CC(=O)NCCCC(=O)Nc1ccc(C(F)(F)F)c(C#CCN)c1)c1nnc(C)n1-2.Cl [5-75′, (S)—N-(3-(3-aminoprop-1-yn-1-yl)-4-(trifluoromethyl)phenyl)-4-(2-(4-(4-chlorophenyl)-2,3,9-trimethyl-6H-thieno[3,2-f][1,2,4]triazolo[4,3-a][1,4]diazepin-6-yl)acetamido)butanamide hydrochloride] | +++ (the degrading capacity was reduced by 70% or more) |
| Cc1sc2c(c1C)C(c1ccc(Cl)cc1)=N[C@@H](CC(=O)NCCCC(=O)Nc1ccc(F)c(C#CCN)c1)c1nnc(C)n1-2.Cl [5-77′, (S)—N-(3-(3-aminoprop-1-yn-1-yl)-4-fluorophenyl)-4-(2-(4-(4-chlorophenyl)-2,3,9-trimethyl-6H-thieno[3,2-f][1,2,4]triazolo[4,3-a][1,4]diazepin-6-yl)acetamido)butanamide hydrochloride] | + (the degrading capacity of each BRD4 degrader was reduced by less than 40%) |
| COC(=O)c1c(C)cc(NC(=O)CCCNC(=O)C[C@@H]2N=C(c3ccc(Cl)cc3)c3c(sc(C)c3C)-n3c(C)nnc32)cc1C#CCN.Cl [5-78′, methyl (S)-2-(3-aminoprop-1-yn-1-yl)-4-(4-(2-(4-(4-chlorophenyl)-2,3,9-trimethyl-6H-thieno[3,2-f][1,2,4]triazolo[4,3-a][1,4]diazepin-6-yl)acetamido)butanamido)-6-methylbenzoate hydrochloride] | + (the degrading capacity of each BRD4 degrader was reduced by less than 40%) |
| Cc1sc2c(c1C)C(c1ccc(Cl)cc1)=N[C@@H](CC(=O)NCCCC(=O)Nc1ccc(-c3cnc(C(F)(F)F)nc3)c(C#CCN)c1)c1nnc(C)n1-2.Cl [5-81′, (S)—N-(3-(3-aminoprop-1-yn-1-yl)-4-(2-(trifluoromethyl)pyrimidin-5-yl)phenyl)-4-(2-(4-(4-chlorophenyl)-2,3,9-trimethyl-6H-thieno[3,2-f][1,2,4]triazolo[4,3-a][1,4]diazepin-6-yl)acetamido)butanamide hydrochloride] | +++ (the degrading capacity was reduced by 70% or more) |
| COC(=O)c1ccc(NCC2CCN(C(=O)C[C@@H]3N=C(c4ccc(Cl)cc4)c4c(sc(C)c4C)-n4c(C)nnc43)CC2)cc1C#CCN [5-85′, methyl (S)-2-(3-aminoprop-1-yn-1-yl)-4-(((1-(2-(4-(4-chlorophenyl)-2,3,9-trimethyl-6H-thieno[3,2-f][1,2,4]triazolo[4,3-a][1,4]diazepin-6-yl)acetyl)piperidin-4-yl)methyl)amino)benzoate trifluoroacetic acid] | +++ (the degrading capacity was reduced by 70% or more) |
